# Reference: publication PMC6736360, “P-Glycoprotein–Mediated Efflux Reduces the In Vivo Efficacy of a Therapeutic Targeting the Gastrointestinal Parasite Cryptosporidium” (The Journal of Infectious Diseases, 2019)
# “Also recorded” adds a separate entry of the source. Like-named read-outs stand apart in the source and are kept apart here.
# Tests used:
# [1] = target: T1, P-gp (Homo sapiens, UniProt P08183); assay: Caco-2 P-gp efflux assay +/- valspodar; type: in vitro ADME; conditions: for P-gp Substrate Classification: Caco-2
# T1 construct: endogenous in cells; host or cells: Caco-2 cells (clone C2BBe1, ATCC); assay run by Absorption Systems LP
# Excerpt: Given the well-known role of P-gp in the efflux of many diverse drugs, the adenosine triphosphate–binding cassette (ABC) transporter was specifically chosen for initial studies, to identify the transporter responsible for BKI1318’s relatively low Papp. A Caco-2 system with overexpression of P-gp was used to verify the role of P-gp in BKI1318 transport (Supplementary Table 2). […] It should be noted that this experiment characterized the importance of P-gp with a single concentration of BKI1318. The kinetics of BKI1318 transport mediated by P-gp are still unknown, and it is not clear how the fraction of absorption mediated by P-gp transport will change with different concentrations of BKI1318.
# (§1) To ensure no damage was inflicted to the cell monolayers during the flux period, lucifer yellow flux was also measured post-experimentally for each monolayer. To determine whether BKIs 1294, 1369, and 1318 were substrates of P-gp in vitro, P-gp efflux was characterized using the Caco-2 permeability assay protocol with a few modifications. The dosing solution concentration was 5 μM of BKI in the assay buffer +/- 1 μM valspodar. Cells were first pre-incubated for 30 minutes with HBSS containing +/- 1 μM valspodar. Cell monolayers were dosed on the apical side (A?B) or basolateral side (B?A), and incubated at 37°C with 5% CO2 in a humidified incubator. Samples were taken from the donor and receiver chambers at 120 minutes. Each determination was performed in duplicate.
# [2] = Mouse oral plasma pharmacokinetics with or without elacridar; type: in vivo, mice; conditions: for AUC(0-inf) / Cmax / Tmax: mouse, plasma, po, mouse plasma, oral, 1369 60 mg/kg, 1318 50 mg/kg
# Procedure: Mouse oral pharmacokinetic (PK) studies were performed as previously described^1. Briefly, blood samples were taken by tail bleeding into heparinized tubes at designated time points and centrifuged to obtain plasma. The samples were frozen and stored at -20°C until extraction and analysis. PK calculations of Tmax, Cmax, AUC, oral clearance, and half-life were performed using Pharsight Phoenix WinNonlin software (Certara, St. Louis, MO).
# [3] = tested on: C. parvum; assay: IFN-γ KO mouse model of Cryptosporidium infection; type: in vivo, mice; conditions: for Effect of elacridar coadministration on in vivo efficacy: IFN-γ KO mice, once daily for 5 days
# Procedure: Efficacy in female IFN-γ KO mice (B6.129S7-Ifngtm1Ts/J; Jackson Laboratories) aged 8–10 weeks was evaluated as previously described. Beginning on day 6 after infection, mice were dosed with 30 mg/kg BKI1318 suspended in 0.2 mL of vehicle, 15 mg/kg elacridar in 0.1 mL of vehicle followed 15 minutes later by 30 mg/kg BKI1318 in 0.1 mL of vehicle, or 0.2 mL of vehicle only once daily for 5 days. Fecal specimens were collected daily from each group and weighed. Each fecal sample was checked for luminescence on the day of collection, and the number of relative light units was determined and normalized to fecal sample weights.
# [4] = tested on: C. parvum; design: method as in PMID 28329187; conditions: previously published study; cited from earlier work
# [5] = tested on: Cryptosporidium; design: method as in PMID 28329187; conditions: cited from earlier work
# [6] = tested on: Caco-2 cells; assay: Caco-2 trans-well apparent permeability assay; type: in vitro ADME; conditions: Caco-2
# Procedure: To initially characterize the permeability of BKIs 1294, 1369, and 1318, the software MedChem Designer (Simulations +, Lancaster, CA) was used to predict the Peff. The in vitro apparent permeability (Papp) was carried out by Absorption Systems LP (Exton, PA) with a Caco-2 trans-well assay. Caco-2 cells (clone C2BBe1) were obtained from American Type Culture Collection (Manassas, VA) were grown to confluence on collagen-coated, microporous membranes in 12-well assay plates. The permeability assay buffer was Hanks’ balanced salt solution (HBSS) containing 10 mM HEPES and 15 mM glucose at a pH of 7.4. The buffer in the receiver chamber also contained 1% bovine serum albumin. The dosing solution concentration was 5 µM BKI in assay buffer, and the cell monolayers were dosed on the apical side (A?B) or basolateral side (B?A) and incubated at 37°C with 5% CO2 in a humidified incubator. After 120 minutes, samples were taken from the donor and receiver chambers in duplicate. The Papp was calculated with equation (1) and the percent recovery with equation (2).
# Papp = (dCr/dt) × Vr/(A × CA) (1)
# Percent Recovery = 100 × ((Vr × Cr^final) + (Vd × Cd^final))/(Vd × […]) (2)
# where dCr/dt is the slope of the cumulative concentration in the receiver compartment versus time in µM s^-1; Vr is the volume of the receiver compartment in cm^3; Vd is the volume of the donor compartment in cm^3; A is the area of the insert (1.13 cm^2 for 12-well); CA is the average of the nominal dosing concentration and the measured 120 minute donor concentration in µM; CN is the nominal concentration of the dosing solution in µM; Cr^final is the cumulative receiver concentration in µM at the end of the incubation period; Cd^final is the concentration of the donor in µM at the end of the incubation period.
# as §1
# [7] = Mouse gastrointestinal tissue pharmacokinetics; type: in vivo, mice; conditions: for AUC(0-t) / Cmax / Tmax: mouse, po
# [8] = 30 mg/kg elacridar 15 minutes before, read-out: AUC0-inf w/ Elacridar
# [9] = 30 mg/kg elacridar 15 minutes before, read-out: Cmax w/ Elacridar
# [10] = 30 mg/kg elacridar 15 minutes before, read-out: Tmax w/ Elacridar
# [11] = mice, 50 mg/kg oral, 30 mg/kg elacridar, P < .05
# T1 sequence (P08183 whole entry): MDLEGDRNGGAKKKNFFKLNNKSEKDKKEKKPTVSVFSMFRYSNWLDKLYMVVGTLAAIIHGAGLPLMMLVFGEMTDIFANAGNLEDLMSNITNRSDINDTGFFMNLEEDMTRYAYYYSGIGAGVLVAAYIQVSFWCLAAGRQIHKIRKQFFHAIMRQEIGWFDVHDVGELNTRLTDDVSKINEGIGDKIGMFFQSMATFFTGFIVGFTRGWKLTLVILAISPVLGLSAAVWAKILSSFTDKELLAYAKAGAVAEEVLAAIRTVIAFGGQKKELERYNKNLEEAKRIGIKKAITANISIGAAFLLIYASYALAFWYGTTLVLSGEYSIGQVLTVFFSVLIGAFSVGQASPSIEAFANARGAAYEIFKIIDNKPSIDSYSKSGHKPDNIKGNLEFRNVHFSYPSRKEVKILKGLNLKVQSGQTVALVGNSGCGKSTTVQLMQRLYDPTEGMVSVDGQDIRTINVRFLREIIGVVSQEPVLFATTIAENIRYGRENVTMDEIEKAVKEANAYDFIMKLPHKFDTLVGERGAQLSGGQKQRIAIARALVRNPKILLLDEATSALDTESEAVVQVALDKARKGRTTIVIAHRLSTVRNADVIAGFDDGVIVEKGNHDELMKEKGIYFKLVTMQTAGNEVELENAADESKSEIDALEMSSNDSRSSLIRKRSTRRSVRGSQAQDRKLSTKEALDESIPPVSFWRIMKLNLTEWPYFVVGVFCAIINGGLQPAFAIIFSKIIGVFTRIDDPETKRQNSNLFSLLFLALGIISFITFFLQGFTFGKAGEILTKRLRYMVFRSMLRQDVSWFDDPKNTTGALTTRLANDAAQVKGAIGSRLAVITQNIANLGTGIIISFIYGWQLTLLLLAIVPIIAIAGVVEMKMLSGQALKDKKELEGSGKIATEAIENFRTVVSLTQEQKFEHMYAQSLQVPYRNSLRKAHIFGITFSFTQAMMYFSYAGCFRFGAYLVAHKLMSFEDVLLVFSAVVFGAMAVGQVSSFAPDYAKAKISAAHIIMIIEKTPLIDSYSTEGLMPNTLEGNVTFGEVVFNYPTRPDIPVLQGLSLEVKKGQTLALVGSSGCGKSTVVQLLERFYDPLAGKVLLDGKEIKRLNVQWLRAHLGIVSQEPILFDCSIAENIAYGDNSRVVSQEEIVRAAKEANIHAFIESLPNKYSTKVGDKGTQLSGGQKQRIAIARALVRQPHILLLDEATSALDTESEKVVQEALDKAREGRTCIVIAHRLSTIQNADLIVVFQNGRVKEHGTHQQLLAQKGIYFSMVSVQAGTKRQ
compound,measurement,setting,value
CCOc1ccc2cc(-c3nn(CC4CCN(C)CC4)c4ncnc(N)c34)ccc2n1 [BKI1369],P-gp Substrate Classification,[1],Negative
same,Change in plasma pharmacokinetics when elacridar administered before,"[2]; mice, 60 mg/kg oral, 30 mg/kg elacridar",not a significant change; also recorded: not significantly different
same,AUC(0-inf),[2]; [8],91.4 ± 5 µM·h
same,Cmax,[2]; [9],4.1 ± 0.3 µM
same,Tmax,[2]; [10],4 ± 1.6 h
same,AUC(0-inf),"[2]; alone, read-out: AUC0-inf",75.6 ± 8.9 µM·h
same,Cmax,"[2]; alone, read-out: Cmax",4.2 µM
same,Tmax,"[2]; alone, read-out: Tmax",2 h
same,Effect of elacridar coadministration on in vivo efficacy,[3],no effect; also recorded: did not affect
same,C. parvum reduction in mouse model of cryptosporidiosis,[4],> 2 log
same,Efficacy in neonatal mouse model of Cryptosporidium infection,[5],efficacious
CCOc1ccc2cc(-c3nn(CC4CCNCC4)c4ncnc(N)c34)ccc2n1 [BKI1318],"A → B Papp, fold lower than BKI1369 and BKI1294",[6],approximately 50 fold
same,P-gp Substrate Classification,[1],Positive
same,"efflux ratio at 120 min, 5 µM","[1]; human, pH 7.4, Caco-2 with overexpression of P-gp, 5 μM, no inhibitor",19
same,"Oral clearance with elacridar, fold greater than observed for BKI1369",[2]; mice,5 fold
same,Oral clearance (clearance/bioavailability) with elacridar coadministration,"[2]; mice, 50 mg/kg oral, 30 mg/kg elacridar",207 mL/h
same,Increase of plasma AUC0–∞ by elacridar coadministration,[2]; [11],approximately 2 fold
same,Increase of plasma Cmax by elacridar coadministration,[2]; [11],approximately 2 fold
same,AUC(0-inf),[2]; [8],12 ± 1.6 µM·h
same,Cmax,[2]; [9],1.8 µM
same,Tmax,[2]; [10],2 h
same,AUC(0-inf),"[2]; alone, read-out: AUC0-inf",6.6 ± 1.7 µM·h
same,Cmax,"[2]; alone, read-out: Cmax",1 µM
same,Tmax,"[2]; alone, read-out: Tmax",2.3 h
same,Effect of elacridar on levels in the cecum/colon,"[7]; mice, cecum/colon tissue",did not significantly affect
same,Increase of duodenum exposure when elacridar administered before,"[7]; mice, duodenum tissue, P < .05",approximately 2 fold
same,Increase of ileum exposure when elacridar administered before,"[7]; mice, ileum tissue, P < .05",approximately 3 fold
same,Increase of jejunum exposure when elacridar administered before,"[7]; mice, jejunum tissue, P < .05",approximately 2 fold
same,AUC(0-t),"[7]; cecum/colon, 30 mg/kg, Cecum/Colon, BKI 1318 alone, read-out: AUC0-12",109 µM·h
same,Cmax,"[7]; cecum/colon, 30 mg/kg, Cecum/Colon, BKI 1318 alone, read-out: Observed Cmax",14.4 µM
same,Tmax,"[7]; cecum/colon, 30 mg/kg, Cecum/Colon, BKI 1318 alone, read-out: Tmax",9.3 h
same,AUC(0-t),"[7]; cecum/colon, Cecum/Colon, with elacridar, read-out: AUC0-12 w/ Elacridar",65.5 ± 4 µM·h
same,Cmax,"[7]; cecum/colon, Cecum/Colon, with elacridar, read-out: Cmax w/ Elacridar",8.2 ± 0.3 µM
same,Tmax,"[7]; cecum/colon, Cecum/Colon, with elacridar, read-out: Tmax w/ Elacridar",7.3 ± 4.1 h
same,AUC(0-t),"[7]; duodenum, Duodenum, BKI 1318 alone, read-out: AUC0-12",235 µM·h
same,Cmax,"[7]; duodenum, Duodenum, BKI 1318 alone, read-out: Observed Cmax",77.2 µM
same,Tmax,"[7]; duodenum, Duodenum, BKI 1318 alone, read-out: Tmax",0.5 h
same,AUC(0-t),"[7]; duodenum, Duodenum, with elacridar, P≤0.001, read-out: AUC0-12 w/ Elacridar",537 µM·h
same,Cmax,"[7]; duodenum, Duodenum, with elacridar, read-out: Cmax w/ Elacridar",110 µM
same,Tmax,"[7]; duodenum, Duodenum, with elacridar, read-out: Tmax w/ Elacridar",0.7 ± 0.2 h
same,AUC(0-t),"[7]; ileum, 30 mg/kg, Ileum, BKI 1318 alone, read-out: AUC0-12",336 µM·h
same,Cmax,"[7]; ileum, Ileum, BKI 1318 alone, read-out: Observed Cmax",79.8 µM
same,Tmax,"[7]; ileum, Ileum, BKI 1318 alone, read-out: Tmax",4.3 h
same,AUC(0-t),"[7]; ileum, Ileum, with elacridar, P≤0.05, read-out: AUC0-12 w/ Elacridar",1150 µM·h
same,Cmax,"[7]; ileum, Ileum, with elacridar, read-out: Cmax w/ Elacridar",177 µM
same,Tmax,"[7]; ileum, Ileum, with elacridar, read-out: Tmax w/ Elacridar",2 h
same,AUC(0-t),"[7]; jejunum, Jejunum, BKI 1318 alone, read-out: AUC0-12",279 µM·h
same,Cmax,"[7]; jejunum, Jejunum, BKI 1318 alone, read-out: Observed Cmax",108 µM
same,Tmax,"[7]; jejunum, Jejunum, BKI 1318 alone, read-out: Tmax",0.8 h
same,AUC(0-t),"[7]; jejunum, Jejunum, with elacridar, P≤0.05, read-out: AUC0-12 w/ Elacridar",558 µM·h
same,Cmax,"[7]; jejunum, Jejunum, with elacridar, read-out: Cmax w/ Elacridar",98.1 µM
same,Tmax,"[7]; jejunum, Jejunum, with elacridar, read-out: Tmax w/ Elacridar",1.8 ± 1.5 h
same,Reduction in C. parvum oocyst excretion,"[3]; 60 mg/kg once daily for 5 days, without elacridar",< 1 log
same,Effect of elacridar coadministration on in vivo efficacy,[3],increased the level by which BKI1318 reduced the Cryptosporidium burden; also recorded: improvement in efficacy
same,Efficacy in neonatal mouse model of Cryptosporidium infection,[5],efficacious
